Measurements: paper PMC4872165, “Targeting human respiratory syncytial virus transcription anti-termination factor M2-1 to inhibit in vivo viral replication” (Scientific Reports, 2016)

Molecular target: T1, hRSV RNA-dependent RNA polymerase (RdRp) complex with M2-1 (L, P, N, M2-1 minigenome) (Human respiratory syncytial virus A2, UniProt P04545)
T1 construct: pN, pP, pL and pM2-1 plasmids (T7 promoter) in BSR-T7/5 (BHK-21) cells with pM/Luc minigenome; strain printed for the virus only, not for the plasmids; M2-1 tetrameric; with RNA-directed RNA polymerase L; Phosphoprotein; Nucleoprotein
Assay: hRSV minigenome luciferase reporter assay in transfected BSR-T7/[…] cells
Format: cell-based

T1 sequence (P04545 whole entry, looked up, one chain of several): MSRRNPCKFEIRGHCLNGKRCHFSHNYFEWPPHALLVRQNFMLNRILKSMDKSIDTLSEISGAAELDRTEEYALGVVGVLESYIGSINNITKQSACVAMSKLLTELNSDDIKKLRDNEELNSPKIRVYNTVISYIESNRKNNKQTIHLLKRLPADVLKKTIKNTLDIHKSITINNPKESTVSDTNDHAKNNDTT

Work on `CC1=C2C[C@H]3[C@@H](CC=C4C[C@@H](O)CC[C@@]43C)[C@@H]2CC[C@]12O[C@@H]1C[C@H](C)CN[C@H]1[C@H]2C` [cyclopamine] yielded an IC50 of 380 nM.
